Data reported in publication PMC11997307, “Rat Sarcoma (RAS)-Protein-Targeting Synthetic Cell-Penetrating Peptide as an Anticancer Biomaterial” (Biomaterials Research, 2025).

Tests used:
[1] = system: phospho-c-RAF and phospho-ERK1/2 in MDA-MB-231 cells; assay: Western blot of RAS-MAPK pathway, MDA-MB-231; type: cell-based, human; conditions: MDA-MB-231, 10-250 μM RBP 6 h then 50 ng/ml EGF 10 min
Description: (§1) Protein expression was confirmed via Western blot analysis. Briefly, 9 × 10^5 cells were cultured in 100-mm-diameter dishes. When they reached 90% confluence, the cells were starved for 18 h in serum-free medium. […] At the end of the culture period, the cells were lysed for 20 min in cold lysis buffer on ice. Protein concentration was measured using bicinchoninic acid protein assays (Thermo Fisher Scientific, MA, USA). Equal aliquots of protein (40 μg) were boiled for 7 min in 5× sample buffer and separated by 10% SDS–PAGE. Proteins were transferred onto nitrocellulose membranes, followed by washing with Tris-buffered saline (TBS) containing 0.1% Tween 20 (TBST). The membranes were then blocked for 60 min at room temperature with 5% skim milk in TBST. Following the washing procedure, the membranes were incubated with primary antibodies (RAS, phospho-ERK1/2, ERK1/2, phospho-RAF proto-oncogene serine/threonine-protein kinase [phospho-c-RAF; S338], c-RAF [Cell Signaling Technology, Beverly, MA, USA], and GAPDH [Santa Cruz Biotechnology, Inc., Santa Cruz, CA, USA]) diluted in TBST containing 5% skim milk at 4 °C for 18 h. […] The membranes were subsequently washed 3 more times, and protein bands were detected using chemiluminescence reagents (West Pico PLUS, Thermo Fisher Scientific, USA).

[2] = system: phospho-c-RAF and phospho-ERK1/2 in MCF-7 cells; assay: Western blot of RAS-MAPK pathway, MCF-7; type: cell-based, human; conditions: MCF-7, 10-250 μM RBP 6 h then 50 ng/ml EGF 10 min
Description: as §1

[3] = system: phospho-c-RAF and phospho-ERK1/2 in HT-29 cells; assay: Western blot of RAS-MAPK pathway, HT-29; type: cell-based, human; conditions: HT-29, 10-250 μM RBP 6 h then 50 ng/ml EGF 10 min
Description: as §1

[4] = system: MDA-MB-231 cell-derived tumors; type: in vivo
Description: Fertilized white leghorn eggs, sourced from the Société Française de Production Avicole (St. Brieuc, France), were incubated for 9 d at 37.5 °C with 50% relative humidity. On embryonic day 9 (E9), a small hole was drilled into the air sac to lower the chorioallantoic membrane (CAM), and a 1-cm^2 window was created in the eggshell above the CAM. The MDA-MB-231 cell line was cultivated in DMEM supplemented with 10% FBS (and 1% penicillin/streptomycin). Cells (at 90% confluency, passages 30 to 32) were detached from culture plates with trypsin/EDTA, rinsed with complete medium, and suspended in graft medium. An inoculum of 1 × 10^6 cells was added onto the CAM of each egg. The eggs were randomly assigned to groups. On day 10 (E10), tumors were detectable. They were then treated every 2 d for 9 d (E11, E13, E15, and E17); specifically, 100 μl of the vehicle or 100 μl of the peptide (10 mg/kg) was added dropwise to the tumor. Angiogenesis was estimated by calculating the number of vessels on the CAM that irrigated tumors. Because tumors generated from MDA-MB-231 cells are hemorrhagic, images were obtained at E16 (2 d before collection to ensure that all vessels in the CAM were visible). On day 18 (E18), the upper portion of the CAM containing the tumor was removed, washed in PBS, and then directly transferred to paraformaldehyde (for 48 h for fixation). The tumors were then carefully removed from normal CAM tissue and weighed. The extent of treatment toxicity was evaluated according to the number of dead embryos after 9 d of treatment and observation of visible macroscopic abnormalities at the end point.
In parallel, a 1-cm^2 portion of the lower CAM was collected to evaluate the number of metastatic cells. Genomic DNA was extracted from the CAM and analyzed for human Alu sequences via quantitative polymerase chain reaction (qPCR) with specific primers. Calculation of the Cq for each sample, the mean Cq, and the number of metastases for each group were performed with the Bio-Rad CFX Maestro software (Bio-Rad, Hercules, CA, USA). According to the real-time PCR data markup language data standard (http://www.rdml.org), Cq is defined as the cycle at which the amplification curve […] (fractional PCR cycles). The Cq value is obtained in the exponential phase, where the qPCR curve is linear. This is the basic result of qPCR: lower Cq values indicate higher initial copy numbers of the target gene. When the PCR efficiency is 100%, a difference of 1 cycle between 2 reactions means that there are 2 times more copies (genes) in the reaction with the lower Cq value than in the reaction with the higher Cq value. One-way analysis of variance (ANOVA) with post hoc tests was performed on the data.
On day 18 (E18), 5 tumor samples per group (different from the tumor samples used for tumor weight determination) were collected to evaluate the infiltration of immune cells. Each tumor sample was cut to a small size (<0.5 cm^3) and kept in 5 volumes of RNAlater solution at 4 °C. The extracted RNA was analyzed via reverse transcription qPCR with specific primers for chicken CD3 and CD4 sequences. The Bio-Rad CFX Maestro software was used to calculate the Cq values for each sample, determine the mean Cq, and quantify the relative expression of immune cell markers in each group.
Three tumors per group were harvested and fixed in 4% formaldehyde, washed, and then stored in 70% ethanol until needed for experiments. The tumors were cut to a standard size and placed in an embedding cassette. The paraffin blocks were sectioned at a thickness of approximately 3 to 5 μm. The cells were placed on a glass slide, stained with hematoxylin and eosin (H&E) and Ki-67, and covered in an automated machine. Pictures were taken via a microscope (Olympus BX60, serial no. 7D04032, Shinjuku, Japan) at a magnification of ×4 and a microscope camera (Olympus DP73, serial no. OH05504, Shinjuku, Japan). […]

MDA-MB-231 cells = assay: Cell viability, CCK-8 assay, MDA-MB-231; type: cell-based, human; conditions: MDA-MB-231 (KRAS G13D), CCK-8, 0-1,000 μM RBP, 24, 48 or 72 h, triplicate
Description: The viability of the cells was determined via Cell Counting Kit-8 (CCK-8; Dojindo Laboratories, Kumamoto, Japan) assay. The cells were plated in 96-well culture plates at a density of 5 × 10^3 cells per well and incubated for 24 h at 37 °C in a humidified incubator with 5% CO2. […] After incubation, the medium was replaced with fresh medium containing 10% (v/v) CCK-8 reagent, and the cells were incubated for 2 h. Absorbance was measured at 450 nm using a microplate reader. All experiments were performed in triplicate.

[5] = chicken egg CAM tumors, 10 mg/kg, E18, 5 tumors per group, normalized to GAPDH

C[C@@H](O)[C@H](NC(=O)[C@H](CO)NC(=O)[C@H](CS)NC(=O)[C@H](CCCCN)NC(=O)CN)C(=O)N[C@@H](CCCNC(=N)N)C(=O)NCC(=O)N[C@@H](CCCNC(=N)N)C(=O)N[C@@H](CCCCN)C(=O)N[C@@H](CS)C(=O)N[C@@H](CS)C(=O)N[C@@H](CCCNC(=N)N)C(=O)N[C@@H](CCCNC(=N)N)C(=O)N[C@@H](CCCCN)C(=O)N[C@@H](CCCCN)C(N)=O [RBP]
activation of RAF (phospho-c-RAF) [1]: effectively inhibited
phosphorylation of ERK1/2 ([1]; p-ERK/ERK, n = 3): effectively inhibited
RAF activation [2]: did not inhibit
ERK1/2 phosphorylation ([2]; n = 3): did not inhibit
RAF activation [3]: did not inhibit
ERK1/2 phosphorylation ([3]; n = 3): did not inhibit
Ki-67 expression in tumor sections (IHC) ([4]; chicken egg CAM tumors, 10 mg/kg): reduced Ki-67 expression
infiltration of CD3-positive immune cells in tumors (chicken CD3 mRNA, RT-qPCR) [4, 5]: increased infiltration
infiltration of CD4-positive immune cells in tumors (chicken CD4 mRNA, RT-qPCR) [4, 5]: increased infiltration
formation of microvessels ([4]; chicken egg CAM, 10 mg/kg, E16): significantly suppressed
metastasis of MDA-MB-231 cells to lower CAM (human Alu qPCR) ([4]; chicken egg CAM, 10 mg/kg, E18, P < 0.01 vs Neg Ctrl): significantly inhibited
number of vessels reaching and feeding the tumors ([4]; chicken egg CAM, 10 mg/kg, images at E16, P < 0.05 vs Neg Ctrl): significantly reduced
average tumor weight ([4]; chicken egg CAM, MDA-MB-231, 10 mg/kg at E11, E13, E15, E17, collected E18, mean ± SD, P < 0.01 vs Neg Ctrl (54.40 ± 12.22 mg)): 22.10 ± 5.86 mg
embryo mortality compared to negative control ([4]; in vivo, 10 mg/kg): no statistically significant difference
percentage of viable cells (MDA-MB-231 cells): reduced the percentage of viable KRAS G13D mutant cells in a dose-dependent manner
